In ChEMBL document CHEMBL1201862, “PubChem BioAssay data set” (2004):
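The compound was tested at five concentrations on cells cultured in 96-well plates, with a 48-hour exposure period. At the GI50, growth is halved.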 Calls of active or inactive are those of the source. No stated cut-off is given here; in the data, active = GI50 up to about 1.1 µM and inactive = higher.

How the values were obtained:
Experiment in all cases: NCI tumour cell line growth inhibition, 48 h
MCF7 = test system: MCF7
UO-31 = test system: UO-31
UACC-257 = test system: UACC-257
RXF 393 = test system: RXF 393
HCC 2998 = test system: HCC 2998
IGROV-1 = test system: IGROV-1
HCT-116 = test system: HCT-116
BT-549 = test system: BT-549
NCI/ADR-RES = test system: NCI/ADR-RES
SK-MEL-28 = test system: SK-MEL-28
NCI-H460 = test system: NCI-H460
COLO 205 = test system: COLO 205
OVCAR-5 = test system: OVCAR-5
SNB-75 = test system: SNB-75
EKVX = test system: EKVX
HL-60 = test system: HL-60
Malme-3M = test system: Malme-3M
786-0 = test system: 786-0
NCI-H226 = test system: NCI-H226
TK-10 = test system: TK-10

Structure (SMILES) | GI50 (MCF7) | GI50 (UO-31) | GI50 (UACC-257) | GI50 (RXF 393) | GI50 (HCC 2998) | GI50 (IGROV-1) | GI50 (HCT-116) | GI50 (BT-549) | GI50 (NCI/ADR-RES) | GI50 (SK-MEL-28) | GI50 (NCI-H460) | GI50 (COLO 205) | GI50 (OVCAR-5) | GI50 (SNB-75) | GI50 (EKVX) | GI50 (HL-60) | GI50 (Malme-3M) | GI50 (786-0) | GI50 (NCI-H226) | GI50 (TK-10)
Cn1c(=O)n(CC(Br)CBr)c(=O)n(CC(Br)CBr)c1=O (stereo not given) | 45.8 µM (inactive) | 25.5 µM (inactive) | 31.8 µM (inactive) | 32.8 µM (inactive) | 28.4 µM (inactive) | 39.9 µM (inactive) | 25.9 µM (inactive) | 67.9 µM (inactive) | 40.5 µM (inactive) | 39.7 µM (inactive) | 33.4 µM (inactive) | 21 µM (inactive) | 43.9 µM (inactive) | 58.5 µM (inactive) | 25.2 µM (inactive) | 20.4 µM (inactive) | > 100 µM (inactive) | 38.1 µM (inactive) | 20.2 µM (inactive) | 55.5 µM (inactive)
C=C1C(=O)C[C@H]2C(=C)C(=O)O[C@@H]2C2C1CC[C@@]2(C)O (stereo not given in full) | 16 µM (inactive) | 23.2 µM (inactive) | 21.5 µM (inactive) | 15.4 µM (inactive) | 19 µM (inactive) | 33.1 µM (inactive) | 31.8 µM (inactive) | 19.8 µM (inactive) | 26.2 µM (inactive) | 27.4 µM (inactive) | 18.8 µM (inactive) | 14.5 µM (inactive) | 32.8 µM (inactive) | > 100 µM (inactive) | 62.8 µM (inactive) | > 100 µM (inactive) | 16.3 µM (inactive) | 19.9 µM (inactive) | 22.2 µM (inactive) | 21.1 µM (inactive)
COc1ccc(/C=C2/CSC/C(=C/c3ccc(OC)c(OC)c3)C2=O)cc1OC | 2.22 µM (inactive) | 4.65 µM (inactive) | 4.11 µM (inactive) | 3.34 µM (inactive) | 2.57 µM (inactive) | 2.28 µM (inactive) | 0.971 µM (active) | 2.88 µM (inactive) | 1.66 µM (inactive) | 2.94 µM (inactive) | 2.23 µM (inactive) | 2.24 µM (inactive) | 4.62 µM (inactive) | 6.4 µM (inactive) | 5.86 µM (inactive) | 1.03 µM (active) | 4.71 µM (inactive) | 2.02 µM (inactive) | 1.92 µM (inactive) | 3.9 µM (inactive)
N#C[BH2-][n+]1cn(C2CC(OP(=O)(O)OCC3OC(n4cnc5c(N)ncnc54)CC3O)C(CO)O2)c2nc(N)[nH]c(=O)c21 (stereo not given) | > 100 µM (inactive) | > 100 µM (inactive) | > 100 µM (inactive) | > 100 µM (inactive) | > 100 µM (inactive) | > 100 µM (inactive) | > 100 µM (inactive) | > 100 µM (inactive) | > 100 µM (inactive) | > 100 µM (inactive) | > 100 µM (inactive) | > 100 µM (inactive) | > 100 µM (inactive) | > 100 µM (inactive) | > 100 µM (inactive) | > 100 µM (inactive) | > 100 µM (inactive) | > 100 µM (inactive) | > 100 µM (inactive) | > 100 µM (inactive)
COC(=O)/N=[N+](\[O-])C(c1ccccc1)c1ccccc1 | > 100 µM (inactive) | 13.4 µM (inactive) | 28.4 µM (inactive) | 63.8 µM (inactive) | > 100 µM (inactive) | 61.8 µM (inactive) | > 100 µM (inactive) | > 100 µM (inactive) | 40.1 µM (inactive) | > 100 µM (inactive) | > 100 µM (inactive) | 76.2 µM (inactive) | > 100 µM (inactive) | 82.4 µM (inactive) | 27.6 µM (inactive) | > 100 µM (inactive) | 27.1 µM (inactive) | > 100 µM (inactive) | 38.6 µM (inactive) | > 100 µM (inactive)
COc1cccc(C2c3cc4c(cc3OC(N3CCOCC3)C2C)OCO4)c1O (stereo not given) | 5.14 µM (inactive) | 8.3 µM (inactive) | 9.14 µM (inactive) | 2.13 µM (inactive) | 7.23 µM (inactive) | 6.19 µM (inactive) | 3.84 µM (inactive) | 13.9 µM (inactive) | 7.21 µM (inactive) | 10.9 µM (inactive) | 3.55 µM (inactive) | 4.28 µM (inactive) | 7.46 µM (inactive) | 7.29 µM (inactive) | 9.14 µM (inactive) | 2.26 µM (inactive) | 4.99 µM (inactive) | 5.6 µM (inactive) | 4.46 µM (inactive) | 8.24 µM (inactive)
O=Nc1ccc(O)c2ncccc12 | 1.76 µM (inactive) | 2.98 µM (inactive) | 6.37 µM (inactive) | 1.67 µM (inactive) | 15.6 µM (inactive) | 5.46 µM (inactive) | 0.822 µM (active) | 10.5 µM (inactive) | 3.85 µM (inactive) | 4.34 µM (inactive) | 1.25 µM (inactive) | 16.1 µM (inactive) | 15.7 µM (inactive) | 2.51 µM (inactive) | 0.525 µM (active) | 0.581 µM (active) | 11.8 µM (inactive) | 4.2 µM (inactive) | 19.6 µM (inactive) | 14.8 µM (inactive)
CCC1(CC)CC(=NNS(=O)(=O)c2ccc(C)cc2)C1 | > 100 µM (inactive) | > 100 µM (inactive) | > 100 µM (inactive) | > 100 µM (inactive) | > 100 µM (inactive) | > 100 µM (inactive) | > 100 µM (inactive) | > 100 µM (inactive) | > 100 µM (inactive) | > 100 µM (inactive) | > 100 µM (inactive) | > 100 µM (inactive) | > 100 µM (inactive) | > 100 µM (inactive) | > 100 µM (inactive) | > 100 µM (inactive) | > 100 µM (inactive) | > 100 µM (inactive) | > 100 µM (inactive) | > 100 µM (inactive)
CC(=O)NC(CCC(=O)C=[N+]=[N-])C(=O)O (stereo not given) | > 100 µM (inactive) | > 100 µM (inactive) | > 100 µM (inactive) | > 100 µM (inactive) | > 100 µM (inactive) | > 100 µM (inactive) | > 100 µM (inactive) | > 100 µM (inactive) | > 100 µM (inactive) | > 100 µM (inactive) | > 100 µM (inactive) | > 100 µM (inactive) | > 100 µM (inactive) | > 100 µM (inactive) | > 100 µM (inactive) | > 100 µM (inactive) | > 100 µM (inactive) | > 100 µM (inactive) | > 100 µM (inactive) | > 100 µM (inactive)
